molecular target: PDE4B (Homo sapiens, UniProt Q07343); test: Scintillation Proximity Assay (SPA) of PDE4B enzyme activity ([H3]-cAMP cleavage); assay type: biochemical; settings: test substance 1 μM; one-hour incubation of [H3]-cAMP with PDE4B enzyme at 30° C.
Method in brief: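 Percent inhibition at 1 μM compound, measured against an uninhibited reaction. PDE4B hydrolysed tritiated cAMP for one hour at 30 °C, then scintillator beads were added to capture [H3]-5′-AMP. Light events were counted after 45 min bead settling.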

Chain of PDE4B (Q07343 whole entry, species assumed): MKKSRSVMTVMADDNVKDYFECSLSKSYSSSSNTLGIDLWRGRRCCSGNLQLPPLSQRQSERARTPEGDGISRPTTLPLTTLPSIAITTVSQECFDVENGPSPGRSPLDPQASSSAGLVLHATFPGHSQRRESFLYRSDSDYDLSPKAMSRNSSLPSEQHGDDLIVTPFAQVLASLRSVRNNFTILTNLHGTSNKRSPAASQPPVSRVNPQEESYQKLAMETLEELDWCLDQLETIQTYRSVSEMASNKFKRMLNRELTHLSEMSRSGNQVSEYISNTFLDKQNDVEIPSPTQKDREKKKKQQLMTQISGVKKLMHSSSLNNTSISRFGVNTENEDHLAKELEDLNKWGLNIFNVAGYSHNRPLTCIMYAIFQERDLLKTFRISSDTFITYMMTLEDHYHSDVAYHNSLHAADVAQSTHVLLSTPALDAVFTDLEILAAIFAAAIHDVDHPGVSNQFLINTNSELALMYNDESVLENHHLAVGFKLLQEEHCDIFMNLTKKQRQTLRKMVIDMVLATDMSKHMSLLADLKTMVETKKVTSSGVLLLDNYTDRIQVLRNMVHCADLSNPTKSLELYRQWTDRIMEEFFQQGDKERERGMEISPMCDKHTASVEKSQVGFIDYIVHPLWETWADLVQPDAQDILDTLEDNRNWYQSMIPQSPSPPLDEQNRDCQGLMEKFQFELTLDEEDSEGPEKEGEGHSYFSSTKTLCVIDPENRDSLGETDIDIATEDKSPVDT

Row | inhibition at 1 µM [%] | SMILES
1 | 95 | N#CC1(c2ccccc2)CCN(c2nc3c(c(NC4CCOCC4)n2)[S+]([O-])CC3)CC1 (centres unmarked) [Example 70]
2 | 97 | CN1C[C@@H](Nc2nc(N3CCC(c4nc5ccccc5o4)CC3)nc3c2[S+]([O-])CC3)CCC1=O (stereo partly drawn) [Example 100, (S)-5-[2-(4-Benzoxazol-2-Yl-Piperidin-1-Yl)-5-Oxo-6,7-Dihydro-5H-5λ^4-Thieno[3,2-d]Pyrimidin-4-Ylamino]-1-Methylpiperidin-2-One]
3 | 97 | CN1C[C@@H](Nc2nc(N3CCC(c4noc5ccccc45)CC3)nc3c2[S+]([O-])CC3)CCC1=O (some centres unmarked) [Example 45]
4 | 94 | [O-][S+]1CCc2nc(N3CCC(c4nc(-c5cccnc5)no4)CC3)nc(NC3(CO)CC3)c21 (centres unmarked) [Example 115]
5 | 96 | [O-][S+]1CCc2nc(N3CCC(c4cccc(O)c4)CC3)nc(NC3(CO)CC3)c21 (centres unmarked) [Example 32]
6 | 95 | CN1C[C@@H](Nc2nc(N3CCC4(CC3)CN(S(C)(=O)=O)c3ccccc34)nc3c2[S+]([O-])CC3)CCC1=O (some centres unmarked) [Example 44]
7 | 86 | CCc1[nH]c2ccc(F)cc2c1C1CCN(c2nc3c(c(N[C@@H](CO)C(C)C)n2)[S+]([O-])CC3)CC1 (stereo partly drawn) [Example 22, (R)-2-{2-[4-(2-Ethyl-5-Fluoro-1H-Indol-3-Yl)-Piperidin-1-Yl]-5-Oxo-6,7-Dihydro-5H-5λ^4-Thieno[3,2-d]Pyrimidin-4-Ylamino}-3-Methylbutan-1-Ol]

same assay, conditions: test substance 1 μM; one-hour incubation with [H3]-cAMP at 30° C.

Row | inhibition at 1 µM [%] | SMILES
8 | 93 | NC1CC1Nc1nc(N2CCC(c3ccc(Cl)cc3)CC2)nc2c1[S+]([O-])CC2 (centres unmarked) [Example 233, N-{2-[4-(4-Chlorophenyl)-Piperidin-1-Yl]-5-Oxo-6,7-Dihydro-5H-5λ^4-Thieno[3,2-d]Pyrimidin-4-Yl}-Cyclopropan-1,2-Diamine]
9 | 92 | CN1C[C@@H](Nc2nc(N3CCC(CNS(C)(=O)=O)(c4ccccc4)CC3)nc3c2[S+]([O-])CC3)CCC1=O (some centres unmarked) [Example 253, N-{1-[4-(1-Methyl-6-Oxo-Piperidin-3-Ylamino)-5-Oxo-6,7-Dihydro-5H-5λ^4-Thieno[3,2-d]Pyrimidin-2-Yl]-4-Phenylpiperidin-4-Ylmethyl}-Methanesulphonamide]
10 | 94 | [O-][S+]1CCc2nc(N3CCC(c4n[nH]c5ccccc45)CC3)nc(NC3CCOCC3)c21 (centres unmarked) [Example 221]
11 | 94 | CC(C)(O)C1(Nc2nc(N3CCC(c4ccc(Cl)cc4)CC3)nc3c2[S+]([O-])CC3)CC1 (centres unmarked) [Example 185, 2-(1-{2-[4-(4-chlorophenyl)-piperidin-1-yl]-5-oxo-6,7-dihydro-5H-5λ^4-thieno[3,2-d]pyrimidin-4-ylamino}-cyclopropyl)-propan-2-ol]
12 | 91 | [O-][S+]1CCc2nc(N3CCC(c4nnc(-c5ccccc5)o4)CC3)nc(NC3(CO)CC3)c21 (centres unmarked) [Example 318]
13 | 94 | Cc1nn(C)cc1C(C)NC(=O)c1ccc(C2CCN(c3nc4c(c(NC5CCOCC5)n3)[S+]([O-])CC4)CC2)cc1 (centres unmarked) [Example 218]
14 | 96 | CN1C[C@@H](Nc2nc(N3CCC(C)(c4nc5cc(F)ccc5o4)CC3)nc3c2[S+]([O-])CC3)CCC1=O (some centres unmarked) [Example 197, 5-{2-[4-(5-fluorobenzoxazol-2-yl)-4-methylpiperidin-1-yl]-5-oxo-6,7-dihydro-5H-5λ^4-thieno[3,2-d]pyrimidin-4-ylamino}-1-methylpiperidin-2-one]
15 | 85 | Cn1c(C2CCN(c3nc4c(c(NC5CCOCC5)n3)[S+]([O-])CC4)CC2)nc2cnccc21 (centres unmarked) [Example 210, {2-[4-(1-methyl-1H-imidazo[4,5-c]pyridin-2-yl)-piperidin-1-yl]-5-oxo-6,7-dihydro-5H-5λ^4-thieno[3,2-d]pyrimidin-4-yl}-(tetrahydropyran-4-yl)-amine]
16 | 89 | O=C(c1ccc(F)cc1)C1(c2ccc(F)cc2)CCN(c2nc3c(c(NC4(CO)CC4)n2)[S+]([O-])CC3)CC1 (centres unmarked) [Example 308]
17 | 87 | [O-][S+]1CCc2nc(N3CCC(CO)(c4ccc(Cl)cc4)CC3)nc(NC3CCOCC3)c21 (centres unmarked) [Example 281]

Reference: patent US8754073B2, “Substituted piperazino-dihydrothienopyrimidines” (Boehringer Ingelheim International GmbH, priority 2007, dated 2014)
